This note sets out measurements from PMC7436049, “Combining In Silico and In Vitro Studies to Evaluate the Acetylcholinesterase Inhibitory Profile of Different Accessions and the Biomarker Triterpenes of Centella asiatica” (Molecules, 2020).

The target in the experiment is T1, acetylcholinesterase from electrophorus electricus (Electrophorus electricus, UniProt O42275).
T1 construct: purchased Sigma–Aldrich (St. Louis, MO, USA)
The experiment can be described thus: biochemical. Conditions: read-out: AChE inhibitory activity, IC50 Values (converted). How it is done: All solvents were HPLC grade, purchased from Merck (Darmstadt, Germany). […] Sodium monobasic […] were purchased from Merck (Darmstadt, Germany), and acetylcholinesterase from electrophorus electricus, 5,5′-Dithiobis (2-nitrobenzoic acid), and […] were obtained from Sigma–Aldrich (St. Louis, MO, USA).
The AChE inhibitory activity was evaluated using Ellman’s method, as reported previously. Each sample (20 µL of 5 mg/mL in DMSO) was dispensed in triplicate into a 96-well microplate and mixed with 190 µL of DTNB, 20 µL of substrate (ATCI). The control wells contained 2% of DMSO instead of the extract. The enzymatic activity was measured at 412 nm every 30 s intervals for 3 min. The buffer solution was used as negative control.
The percentage inhibition (%I) of each sample and the positive control (physostigmine) was calculated using the formula:%I: [(Ac − As)/(Ac)] × 100(1) where (%I): Percentage inhibition • Ac: Absorbance of negative control • As: Absorbance of sample
The experiments were expressed as the mean ± standard error of the mean (SEM) in triplicates.

Where [1] appears, read: Ellman's method, 412 nm, mean ± SEM, triplicates.

Like-named read-outs stand apart in the source and are kept apart here.

T1 sequence (O42275 24-633): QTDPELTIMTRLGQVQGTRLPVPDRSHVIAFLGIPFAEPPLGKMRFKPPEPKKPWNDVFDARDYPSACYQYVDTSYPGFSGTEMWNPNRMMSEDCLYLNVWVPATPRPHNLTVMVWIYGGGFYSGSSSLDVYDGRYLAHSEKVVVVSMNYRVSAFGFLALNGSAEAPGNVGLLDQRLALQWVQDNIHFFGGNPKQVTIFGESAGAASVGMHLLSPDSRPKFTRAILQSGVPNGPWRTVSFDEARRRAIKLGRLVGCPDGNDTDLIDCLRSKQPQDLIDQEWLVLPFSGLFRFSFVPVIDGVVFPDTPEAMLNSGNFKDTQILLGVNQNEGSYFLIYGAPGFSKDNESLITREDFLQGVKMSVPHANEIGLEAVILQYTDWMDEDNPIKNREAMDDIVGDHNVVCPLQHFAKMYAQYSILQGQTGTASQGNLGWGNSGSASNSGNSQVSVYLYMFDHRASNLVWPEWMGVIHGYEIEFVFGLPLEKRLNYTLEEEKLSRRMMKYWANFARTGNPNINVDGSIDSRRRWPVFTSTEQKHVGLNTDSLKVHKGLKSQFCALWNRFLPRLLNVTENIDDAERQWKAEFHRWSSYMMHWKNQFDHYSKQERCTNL

`C[C@H]1[C@H](C)CC[C@]2(C(=O)O)CC[C@]3(C)C(=CC[C@@H]4[C@@]5(C)C[C@@H](O)[C@H](O)[C@@](C)(CO)[C@@H]5[C@H](O)C[C@]43C)[C@H]12` [Madecassic acid, madecassic acid]: under setting [1], the IC50 was 35.3 µM.

Regarding `C[C@H]1[C@H](C)CC[C@]2(C(=O)O)CC[C@]3(C)C(=CC[C@@H]4[C@@]5(C)C[C@@H](O)[C@H](O)[C@@](C)(CO)[C@@H]5CC[C@]43C)[C@H]12` [Asiatic acid, asiatic acid], the IC50 under setting [1] is 30.8 µM.

Turning to `C[C@H]1[C@H](C)CC[C@]2(C(=O)O[C@@H]3O[C@H](CO[C@@H]4O[C@H](CO)[C@@H](O[C@@H]5O[C@@H](C)[C@H](O)[C@@H](O)[C@H]5O)[C@H](O)[C@H]4O)[C@@H](O)[C@H](O)[C@H]3O)CC[C@]3(C)C(=CC[C@@H]4[C@@]5(C)C[C@@H](O)[C@H](O)[C@@](C)(CO)[C@@H]5[C@H](O)C[C@]43C)[C@H]12` [Madecassoside, madecassoside], the IC50 was 38.1 µM.
